{"source": "patent US10238688B2", "about": "“Combination therapies for bladder cancer” (GENEDIA BIOTECH CO. LTD., priority 2015, dated 2019)", "key": {"[1]": {"test_system": "DNA Damage response pathway", "assay": "Cignal Finder dual-luciferase pathway reporter, DNA Damage response (5637, Biu87, UM-UC-3, H-bc, SV-HUC-1)", "assay_type": "cell-based, human", "design": "key to Relative activity, DNA Damage reporter: firefly/renilla ratio, background (negative control) subtracted", "details": "for Relative activity, DNA Damage reporter: luc/Renluc relative to negative control reporter, single drug at 4 folds vs EH/Ci/Mi combination", "method": "The pathway analysis was performed with Qiagen's Cignal Finder Pathway Reporter Array systems according to the manufacturer's instructions. The pathway-focused dual-luciferase reporter construct was a mixture of an inducible transcription factor responsive firefly luciferase reporter and constitutively expressing renilla construct. Transcriptional response element (TRE) sequence response elements to each specific transcriptional factor triggered by the different signaling pathways are positioned before the TATA box of firefly luciferase reporter gene. The extent of activity of the reporter reflects the level of activity of the particular signaling pathway. CMV controlled renilla expression vector is co-transfected into the cell as an internal control. Non-inducible reporter construct that lacks the transcriptional factor binding sequence and could not be induced by any transcription factors is used as a negative control. Cells transfected with CMV directed firefly luciferase reporter gene serve as a positive control. Briefly, cells seeded in 6-well plates were transfected with Cignal finder pathway arrays according to the manufacturer's instructions (Qiagen). Then cells were seeded onto 96-well plates. […] After 6 h of incubation with the different drugs at 37° C., cells were lysed and a dual luciferase assay (for firefly and renilla luciferase) was performed using a PromegaGloMax 20/20 illuminometer. The firefly luciferase activities were normalized over the renilla luciferase activities after background activity determined by luciferase activities of negative controls was subtracted. A triple test of cell survival under these drug doses was also performed by MTT assay following 18 h incubation at 37° C. […]"}, "[2]": {"test_system": "SCaBER", "assay": "MTT cell survival / IC50, SCaBER squamous carcinoma cells", "assay_type": "cell-based, human", "method": "The clinical grade of the chemotherapeutics (NCI Dictionary of Cancer Terms) was provided by the First Affiliated Hospital of Harbin Medical University: Pirarubicin (Pi, Wanle, Shenzhen), Paclitaxel (Pa, Taiji, Sichuan), Adriamycin (Ad, Pfizer, Jiangsu), Epirubicin Hydrochloride (EH, Haizheng, Zhejiang), Hydroxycamptothecin (Hy, Lishizhen, Hubei), Cisplatin (Ci, Haosen, Jiangsu), Gemcitabine (Ge, Haosen, Jiangsu) and Mitomycin (Mi, Haizheng, Zhejiang). The drug induced cell death was determined by a thiazolyl […] (MTT, 490 nm reading) based cell proliferation assay in the cultured cells following treatment by various concentrations of drugs for 72 hours. The relative chemoresistance to each drug of all cell lines was calculated with the lowest IC50 as a reference. The overall chemoresistance of each cell line was described as “chemoresistance index”, the numerator of the total relative IC50 to all the drugs over the number of drugs to rank the overall resistance state of each cell line to the six chemotherapeutics collectively.\nThe relative IC50 (fold) of each drug of all nine cell lines was normalized to the lowest IC50 in the most sensitive cell line (FIG. 2G), to describe the single drug resistance of cell lines. The overall chemoresistance of each cell line, a “chemoresistance index” (the numerator of the total relative IC50 over the number of drugs) (FIG. 2G) were calculated to rank the overall resistance state of each cell line to this six chemotherapeutics."}, "[3]": {"test_system": "Cell Cycle/pRb-E2F pathway", "assay": "Cignal Finder dual-luciferase pathway reporter, Cell Cycle/pRb-E2F", "assay_type": "cell-based, human", "details": "for Relative activity, Cell Cycle/pRb-E2F reporter: luc/Renluc relative to negative control reporter, single drug at 4 folds vs EH/Ci/Mi combination", "method": "(§1) The pathway analysis was performed with Qiagen's Cignal Finder Pathway Reporter Array systems according to the manufacturer's instructions. The pathway-focused dual-luciferase reporter construct was a mixture of an inducible transcription factor responsive firefly luciferase reporter and constitutively expressing renilla construct. Transcriptional response element (TRE) sequence response elements to each specific transcriptional factor triggered by the different signaling pathways are positioned before the TATA box of firefly luciferase reporter gene. The extent of activity of the reporter reflects the level of activity of the particular signaling pathway. CMV controlled renilla expression vector is co-transfected into the cell as an internal control. Non-inducible reporter construct that lacks the transcriptional factor binding sequence and could not be induced by any transcription factors is used as a negative control. Cells transfected with CMV directed firefly luciferase reporter gene serve as a positive control. Briefly, cells seeded in 6-well plates were transfected with Cignal finder pathway arrays according to the manufacturer's instructions (Qiagen). Then cells were seeded onto 96-well plates. Ci (6000 ng/mL), Mi (800 ng/mL), or EH (1000 ng/mL) and Ci/Mi/EH combination (Ci, 1500 ng/mL, Mi, 800 ng/mL and EH, 1000 ng/m L) were then added to the cells 24 h post-transfection. After 6 h of incubation with the different drugs at 37° C., cells were lysed and a dual luciferase assay (for firefly and renilla luciferase) was performed using a PromegaGloMax 20/20 illuminometer. The firefly luciferase activities were normalized over the renilla luciferase activities after background activity determined by luciferase activities of negative controls was subtracted. A triple test of cell survival under these drug doses was also performed by MTT assay following 18 h incubation at 37° C. […]"}, "[4]": {"test_system": "Hypoxia pathway", "assay": "Cignal Finder dual-luciferase pathway reporter, Hypoxia", "assay_type": "cell-based, human", "design": "key to Relative activity, Hypoxia reporter: firefly/renilla ratio, background (negative control) subtracted", "details": "for Relative activity, Hypoxia reporter: luc/Renluc relative to negative control reporter, single drug at 4 folds vs EH/Ci/Mi combination", "method": "as §1"}, "[5]": {"test_system": "nine cancer-associated signaling pathways", "assay": "Pearson correlation of collective drug-triggered pathway activities (single drug versus EH/Ci/Mi regimen)", "from_the_text": "To calculate the correlation coefficients between the two cell lines, the R language statistics function “cor{stats}” was used to generate the correlation matrix between multiple cell lines.\nThis example then determined the correlation coefficient between the overall activity of these nine pathways and the chemoresistance state of these five cell lines. […] The overall state of activity of these pathways in each cell line are summarized (FIG. 4E) and the correlation coefficient of each pair of cell lines is calculated (FIG. 4F)."}}}
{"compound": "COC12C(COC(N)=O)C3=C(C(=O)C(C)=C(N)C3=O)N1CC1NC12", "note": "(centres unmarked) [Mi, [6-Amino-8a-methoxy-5-methyl-4,7-dioxo-1,1a,2,4,7,8,8a,8b-octahydroazireno [2′,3′:3,4]pyrrolo[1,2-a]indol-8-yl]methyl carbamate]", "values": [{"measurement": "relative drug trigged pathway activity over the no-drug level, DNA Damage", "setting": "[1]; 5637 cells", "value": 2.87, "unit": "fold"}, {"measurement": "Relative activity, DNA Damage reporter", "setting": "[1]; 5637 cells", "value": 0.63}, {"measurement": "digitalized pathway activity, DNA Damage", "setting": "[1]; Biu87 cells", "value": "0 (null (0) if neither of the above holds)"}, {"measurement": "relative drug trigged pathway activity over the no-drug level, DNA Damage", "setting": "[1]; Biu87 cells", "value": 1.35, "unit": "fold"}, {"measurement": "Relative activity, DNA Damage reporter", "setting": "[1]; Biu87 cells", "value": 2.03}, {"measurement": "digitalized pathway activity, DNA Damage", "setting": "[1]; H-bc cells", "value": "0 (null (0) if neither of the above holds)"}, {"measurement": "relative drug trigged pathway activity over the no-drug level, DNA Damage", "setting": "[1]; H-bc cells", "value": 1.08, "unit": "fold"}, {"measurement": "Relative activity, DNA Damage reporter", "setting": "[1]; H-bc cells", "value": 0.73}, {"measurement": "relative drug trigged pathway activity over the no-drug level, DNA Damage", "setting": "[1]; SV-HUC-1 cells", "value": 1.75, "unit": "fold"}, {"measurement": "Relative activity, DNA Damage reporter", "setting": "[1]; SV-HUC-1 cells", "value": 4.20}, {"measurement": "digitalized pathway activity, DNA Damage", "setting": "[1]; UM-UC-3 cells", "value": "0 (null (0) if neither of the above holds)"}, {"measurement": "Relative activity, DNA Damage reporter", "setting": "[1]; UM-UC-3 cells", "value": 4.77}, {"measurement": "relative drug trigged pathway activity over the no-drug level, DNA Damage", "setting": "[1]; Um-Uc-3 cells", "value": 1.37, "unit": "fold"}, {"measurement": "Cell survival (%)", "setting": "[2]; Table S3, ng/ml: Pi 40, Pa 160, EH 250, Ci 1500, Mi 200, 1=Ci/Mi, 2=EH/Ci/Mi, 3=Pa/Ci/Mi, 4=Pi/Ci/Mi", "value": 56.83, "unit": "%"}, {"measurement": "Single drug 4X Cell Survival (%)", "setting": "[2]; ng/ml: EH 1000, Ci 6000, Mi 800, Pi 160, Pa 640, Ge 20, EH/Ci/Mi regimen", "value": 41.97, "unit": "%"}, {"measurement": "relative drug trigged pathway activity over the no-drug level, Cell Cycle/pRb-E2F", "setting": "[3]; 5637 cells", "value": 2.64, "unit": "fold"}, {"measurement": "Relative activity, Cell Cycle/pRb-E2F reporter", "setting": "[3]; 5637 cells", "value": 2.40}, {"measurement": "digitalized pathway activity, Cell Cycle/pRb-E2F", "setting": "[3]; Biu87 cells", "value": "0 (null (0) if neither of the above holds)"}, {"measurement": "relative drug trigged pathway activity over the no-drug level, Cell Cycle/pRb-E2F", "setting": "[3]; Biu87 cells", "value": 1.46, "unit": "fold"}, {"measurement": "Relative activity, Cell Cycle/pRb-E2F reporter", "setting": "[3]; Biu87 cells", "value": 0.83}, {"measurement": "relative drug trigged pathway activity over the no-drug level, Cell Cycle/pRb-E2F", "setting": "[3]; H-bc cells", "value": 0.3, "unit": "fold"}, {"measurement": "Relative activity, Cell Cycle/pRb-E2F reporter", "setting": "[3]; H-bc cells", "value": 0.92}, {"measurement": "digitalized pathway activity, Cell Cycle/pRb-E2F", "setting": "[3]; SV-HUC-1 cells", "value": "0 (null (0) if neither of the above holds)"}, {"measurement": "relative drug trigged pathway activity over the no-drug level, Cell Cycle/pRb-E2F", "setting": "[3]; SV-HUC-1 cells", "value": 1.39, "unit": "fold"}, {"measurement": "Relative activity, Cell Cycle/pRb-E2F reporter", "setting": "[3]; SV-HUC-1 cells", "value": 6.80}, {"measurement": "Relative activity, Cell Cycle/pRb-E2F reporter", "setting": "[3]; UM-UC-3 cells", "value": 2.17}, {"measurement": "relative drug trigged pathway activity over the no-drug level, Cell Cycle/pRb-E2F", "setting": "[3]; Um-Uc-3 cells", "value": 0.37, "unit": "fold"}, {"measurement": "relative drug trigged pathway activity over the no-drug level, Hypoxia", "setting": "[4]; 5637 cells", "value": 3.31, "unit": "fold"}, {"measurement": "Relative activity, Hypoxia reporter", "setting": "[4]; 5637 cells", "value": 75.18}, {"measurement": "relative drug trigged pathway activity over the no-drug level, Hypoxia", "setting": "[4]; Biu87 cells", "value": 3.56, "unit": "fold"}, {"measurement": "Relative activity, Hypoxia reporter", "setting": "[4]; Biu87 cells", "value": 26.99}, {"measurement": "digitalized pathway activity, Hypoxia", "setting": "[4]; H-bc cells", "value": "0 (null (0) if neither of the above holds)"}, {"measurement": "relative drug trigged pathway activity over the no-drug level, Hypoxia", "setting": "[4]; H-bc cells", "value": 0.58, "unit": "fold"}, {"measurement": "Relative activity, Hypoxia reporter", "setting": "[4]; H-bc cells", "value": 20.08}, {"measurement": "relative drug trigged pathway activity over the no-drug level, Hypoxia", "setting": "[4]; SV-HUC-1 cells", "value": 2.08, "unit": "fold"}, {"measurement": "Relative activity, Hypoxia reporter", "setting": "[4]; SV-HUC-1 cells", "value": 52.50}, {"measurement": "digitalized pathway activity, Hypoxia", "setting": "[4]; UM-UC-3 cells", "value": "0 (null (0) if neither of the above holds)"}, {"measurement": "Relative activity, Hypoxia reporter", "setting": "[4]; UM-UC-3 cells", "value": 45.95}, {"measurement": "relative drug trigged pathway activity over the no-drug level, Hypoxia", "setting": "[4]; Um-Uc-3 cells", "value": 0.73, "unit": "fold"}, {"measurement": "Correlation coefficients versus EH/Ci/Mi", "setting": "[5]; 5637 cells", "value": 1}, {"measurement": "Correlation coefficients versus EH/Ci/Mi", "setting": "[5]; Biu87 cells", "value": 0.982}, {"measurement": "Correlation coefficients versus EH/Ci/Mi", "setting": "[5]; H-bc cells", "value": "−0.2773"}, {"measurement": "Correlation coefficients versus EH/Ci/Mi", "setting": "[5]; SV-HUC-1 cells", "value": 1}, {"measurement": "Correlation coefficients versus EH/Ci/Mi", "setting": "[5]; UmUc3 cells", "value": 0.982}]}
